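Following 48 hours of exposure in 96-well plates, responses at five concentrations were used to interpolate endpoints linearly. At the TGI there is no net growth.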
What was measured:
Test in all cases: NCI tumour cell line growth inhibition, 48 h
A549 NSCLC = system: A549 NSCLC
ACHN renal = system: ACHN renal
HCC-2998 colon = system: HCC-2998 colon
HCT-116 colon = system: HCT-116 colon
HCT-15 colon = system: HCT-15 colon
HOP-92 NSCLC = system: HOP-92 NSCLC
HT29 colon = system: HT29 colon
IGROV1 ovarian = system: IGROV1 ovarian
K-562 leukemia = system: K-562 leukemia
LOX IMVI melanoma = system: LOX IMVI melanoma
NCI-H522 lung = system: NCI-H522 lung
OVCAR-3 ovarian = system: OVCAR-3 ovarian
PC-3 prostate = system: PC-3 prostate
RPMI-8226 leukemia = system: RPMI-8226 leukemia
RXF 393 renal = system: RXF 393 renal
SF-295 CNS = system: SF-295 CNS
SF-539 CNS = system: SF-539 CNS
SK-MEL-5 melanoma = system: SK-MEL-5 melanoma
SN12C renal = system: SN12C renal
SW-620 colon = system: SW-620 colon

Compound	TGI (A549 NSCLC)	TGI (ACHN renal)	TGI (HCC-2998 colon)	TGI (HCT-116 colon)	TGI (HCT-15 colon)	TGI (HOP-92 NSCLC)	TGI (HT29 colon)	TGI (IGROV1 ovarian)	TGI (K-562 leukemia)	TGI (LOX IMVI melanoma)	TGI (NCI-H522 lung)	TGI (OVCAR-3 ovarian)	TGI (PC-3 prostate)	TGI (RPMI-8226 leukemia)	TGI (RXF 393 renal)	TGI (SF-295 CNS)	TGI (SF-539 CNS)	TGI (SK-MEL-5 melanoma)	TGI (SN12C renal)	TGI (SW-620 colon)
CC1(C)CCC[C@@]2(C)C1C(=O)[C@@H]1O[C@]1(C)[C@@H]2CO (stereo not given in full)	> 100 µM	> 100 µM	66.5 µM	> 100 µM	> 100 µM	88 µM	> 100 µM	> 100 µM	> 100 µM	> 100 µM	93.1 µM	50.8 µM	> 100 µM	53.4 µM	75.6 µM	> 100 µM	> 100 µM	> 100 µM	> 100 µM	> 100 µM
CC1(C)CC(=O)c2c(nc(SSc3nc4c(c(-c5ccc(Br)cc5)c3C#N)C(=O)CC(C)(C)C4)c(C#N)c2-c2ccc(Br)cc2)C1	> 10 µM	> 10 µM	> 10 µM	> 10 µM	> 10 µM	> 10 µM	> 10 µM	> 10 µM	> 10 µM	> 10 µM	> 10 µM	> 10 µM	> 10 µM	> 10 µM	> 10 µM	> 10 µM	> 10 µM	> 10 µM	> 10 µM	> 10 µM
CCN(CC)c1ccc2cc(C(=O)Nc3nc(C45CC6CC(CC(C6)C4)C5)cs3)c(=O)oc2c1	> 100 µM	> 100 µM	> 100 µM	> 100 µM	> 100 µM	> 100 µM	> 100 µM	> 100 µM	> 100 µM	> 100 µM	> 100 µM	> 100 µM	> 100 µM	> 100 µM	> 100 µM	> 100 µM	> 100 µM	> 100 µM	> 100 µM	> 100 µM
COc1cc2c(c(OC)c1OC)C(=O)[C@H](Br)[C@H]2NC(=O)NCCCl	> 100 µM	> 100 µM	> 100 µM	> 100 µM	> 100 µM	> 100 µM	> 100 µM	> 100 µM	> 100 µM	> 100 µM	> 100 µM	> 100 µM	> 100 µM	> 100 µM	> 100 µM	> 100 µM	> 100 µM	> 100 µM	> 100 µM	> 100 µM
CCSC1=N/C(=C/c2ccccc2O)C(=O)N1	> 100 µM	> 100 µM	> 100 µM	> 100 µM	> 100 µM	> 100 µM	> 100 µM	> 100 µM	> 100 µM	> 100 µM	> 100 µM	> 100 µM	> 100 µM	> 100 µM	68.1 µM	> 100 µM	91.8 µM	> 100 µM	> 100 µM	> 100 µM
O=S(=O)(NC1OCCCC1I)c1ccccc1 (stereo not given)	> 100 µM	> 100 µM	> 100 µM	> 100 µM	> 100 µM	> 100 µM	> 100 µM	> 100 µM	> 100 µM	> 100 µM	> 100 µM	> 100 µM	> 100 µM	> 100 µM	> 100 µM	> 100 µM	> 100 µM	> 100 µM	> 100 µM	> 100 µM
CCOC(=O)CCC(NC(=O)c1ccc(Nc2cnc3ccc(C(F)(F)F)cc3n2)cc1)C(=O)OCC (stereo not given)	> 100 µM	> 81.2 µM	> 100 µM	> 100 µM	> 100 µM	> 43.1 µM	> 100 µM	> 47.2 µM	> 100 µM	> 100 µM	> 100 µM	> 100 µM	> 100 µM	> 100 µM	> 90.2 µM	> 100 µM	39 µM	> 100 µM	> 100 µM	> 100 µM
Cn1c2ccccc2n2c3ccccc3c(=O)c(C#N)c12	> 100 µM	13.6 µM	> 100 µM	33.9 µM	> 100 µM	> 76.7 µM	> 100 µM	> 87 µM	> 100 µM	> 56.1 µM	58.1 µM	> 100 µM	> 100 µM	> 26.7 µM	> 100 µM	55.1 µM	> 80.8 µM	28.4 µM	> 100 µM	> 100 µM
C#C[C@]1(O)CC[C@H]2[C@@H]3CCC4=C/C(=N\OCCN(CC)CC)CC[C@]4(C)[C@H]3CC[C@@]21C	> 41.4 µM	28.1 µM	25.9 µM	17.6 µM	25.3 µM	52.9 µM	14.6 µM	17.1 µM	11.9 µM	13.1 µM	5.76 µM	8.91 µM	16.1 µM	5.83 µM	7.35 µM	5.21 µM	10.1 µM	7.37 µM	46.8 µM	> 29.1 µM
CCOC(=O)/C(C[C@H]1OC(C)(C)O[C@@H]1[C@H]1COC(C)(C)O1)=N/O	> 100 µM	> 100 µM	> 100 µM	> 100 µM	> 100 µM	> 100 µM	> 100 µM	> 100 µM	> 100 µM	> 100 µM	> 100 µM	> 100 µM	> 100 µM	> 100 µM	> 100 µM	> 100 µM	> 100 µM	> 100 µM	> 100 µM	> 100 µM
CC(=O)Oc1cc(C)c(OC(C)=O)c2c1[C@H]1CC[C@]3(C)[C@@H](OC(C)=O)CC[C@H]3[C@@H]1CC2	34.4 µM	27.7 µM	26.9 µM	30.2 µM	31.3 µM	23.7 µM	46.2 µM	32.9 µM	86.1 µM	29.3 µM	32.6 µM	32.1 µM	26.9 µM	59.2 µM	33.9 µM	37.2 µM	35.4 µM	31.3 µM	33.2 µM	34.3 µM
CNC(=O)CNC(=O)C(Cc1ccc(NC(=O)CCCCC(C)=O)cc1)NC(=O)C(CCC(=O)OCc1ccccc1)NC(=O)OC(C)(C)C (stereo not given)	> 100 µM	> 100 µM	> 100 µM	> 100 µM	> 100 µM	> 100 µM	> 100 µM	> 100 µM	> 100 µM	> 100 µM	> 100 µM	> 100 µM	> 100 µM	> 100 µM	> 100 µM	> 100 µM	> 100 µM	> 100 µM	> 100 µM	> 100 µM
O=S(=O)(O)c1cc(N=Nc2cc(S(=O)(=O)O)c3cccnc3c2O)ccc1/C=C/c1ccc(N=Nc2cc(S(=O)(=O)O)c3cccnc3c2O)cc1S(=O)(=O)O	> 100 µM	> 100 µM	> 100 µM	> 100 µM	> 100 µM	> 100 µM	> 100 µM	> 100 µM	> 89.8 µM	> 100 µM	> 100 µM	> 100 µM	> 100 µM	> 100 µM	> 31.6 µM	> 100 µM	> 100 µM	> 100 µM	> 100 µM	> 100 µM

Reference: PubChem BioAssay (NCI)
